{
  "source": "patent US12516356B2",
  "about": "“Process for the detoxification of lignocellulosic hydrolysate and its use in synthesizing xylitol” (COUNCIL OF SCIENTIFIC AND INDUSTRIAL RESEARCH, priority 2020, dated 2026)",
  "test_system": "HepG2 cell lines",
  "experiment": "cytotoxicity studies on HepG2 cell lines",
  "assay_type": "cell-based",
  "details": "xylitol crystals recovered from fermentation broth",
  "data": [
    {"molecule": "OC[C@@H](O)[C@H](O)[C@@H](O)CO", "note": "[Xylitol crystals, xylitol]", "values": [
      {"measurement": "toxic effect on HepG2 cell lines (cytotoxicity studies)", "value": "no toxic effect"}
    ]}
  ]
}
